O=C(O)[C@@H]1C[C@@H](O)CN1
Settings	solubility (mole fraction)
in 1,4-dioxane, 288.15 K	0.00041
in 1,4-dioxane, 293.15 K	0.00063
in 1,4-dioxane, 298.15 K	0.00085
in 1,4-dioxane, 303.15 K	0.00108
in 1,4-dioxane, 308.15 K	0.00131
in 1,4-dioxane, 313.15 K	0.00153
in 1,4-dioxane, 318.15 K	0.00178
in 1,4-dioxane, 323.15 K	0.00204
in 1,4-dioxane, 328.15 K	0.00238
in 1,4-dioxane, 333.15 K	0.00274
in 2-butanone, 283.15 K	4.4e-05
in 2-butanone, 288.15 K	7.9e-05
in 2-butanone, 293.15 K	0.000128
in 2-butanone, 298.15 K	0.00019
in 2-butanone, 303.15 K	0.00028
in 2-butanone, 308.15 K	0.000382
in 2-butanone, 313.15 K	0.000483
in 2-butanone, 318.15 K	0.000602
in 2-butanone, 323.15 K	0.000723
in 2-butanone, 328.15 K	0.000865
in 2-butanone, 333.15 K	0.00101
in acetone, 283.15 K	0.000922
in acetone, 288.15 K	0.0011
in acetone, 293.15 K	0.00139
in acetone, 298.15 K	0.00164
in acetone, 303.15 K	0.00205
in acetone, 308.15 K	0.00235
in acetone, 313.15 K	0.00277
in acetone, 318.15 K	0.0032
in acetone, 323.15 K	0.00383
in acetone, 328.15 K	0.00441
in acetonitrile, 288.15 K	3.3e-05
in acetonitrile, 293.15 K	6.5e-05
in acetonitrile, 298.15 K	0.000103
in acetonitrile, 303.15 K	0.000146
in acetonitrile, 308.15 K	0.000186
in acetonitrile, 313.15 K	0.000226
in acetonitrile, 318.15 K	0.000267
in acetonitrile, 323.15 K	0.000315
in acetonitrile, 328.15 K	0.000358
in acetonitrile, 333.15 K	0.000416
in dichloromethane, 283.15 K	0.000134
in dichloromethane, 288.15 K	0.000221
in dichloromethane, 293.15 K	0.000313
in dichloromethane, 298.15 K	0.000412
in dichloromethane, 303.15 K	0.000511
in dichloromethane, 308.15 K	0.000614
in ethanol, 283.15 K	7e-05
in ethanol, 288.15 K	0.000109
in ethanol, 293.15 K	0.000145
in ethanol, 298.15 K	0.000188
in ethanol, 303.15 K	0.000226
in ethanol, 308.15 K	0.000273
in ethanol, 313.15 K	0.000313
in ethanol, 318.15 K	0.000378
in ethanol, 323.15 K	0.000431
in ethanol, 328.15 K	0.000512
in ethanol, 333.15 K	0.000573
in ethyl acetate, 283.15 K	0.000455
in ethyl acetate, 288.15 K	0.000653
in ethyl acetate, 293.15 K	0.000863
in ethyl acetate, 298.15 K	0.00108
in ethyl acetate, 303.15 K	0.00132
in ethyl acetate, 308.15 K	0.00167
in ethyl acetate, 313.15 K	0.0019
in ethyl acetate, 318.15 K	0.00227
in ethyl acetate, 323.15 K	0.00262
in ethyl acetate, 328.15 K	0.00314
in ethyl acetate, 333.15 K	0.00379
in isobutanol, 283.15 K	6.9e-05
in isobutanol, 288.15 K	8.2e-05
in isobutanol, 293.15 K	9.7e-05
in isobutanol, 298.15 K	0.000113
in isobutanol, 303.15 K	0.000143
in isobutanol, 308.15 K	0.000189
in isobutanol, 313.15 K	0.000222
in isobutanol, 318.15 K	0.000263
in isobutanol, 323.15 K	0.000301
in isobutanol, 328.15 K	0.000346
in isobutanol, 333.15 K	0.000383
in isopropanol, 283.15 K	3.5e-05
in isopropanol, 288.15 K	6.8e-05
in isopropanol, 293.15 K	9.9e-05
in isopropanol, 298.15 K	0.000119
in isopropanol, 303.15 K	0.000154
in isopropanol, 308.15 K	0.000204
in isopropanol, 313.15 K	0.000254
in isopropanol, 318.15 K	0.00031
in isopropanol, 323.15 K	0.00036
in isopropanol, 328.15 K	0.000419
in isopropanol, 333.15 K	0.000493
in methanol, 283.15 K	0.000127
in methanol, 288.15 K	0.000149
in methanol, 293.15 K	0.000171
in methanol, 298.15 K	0.000212
in methanol, 303.15 K	0.000253
in methanol, 308.15 K	0.000292
in methanol, 313.15 K	0.000328
in methanol, 318.15 K	0.000407
in methanol, 323.15 K	0.000525
in methanol, 328.15 K	0.000653
in methanol, 333.15 K	0.000784
in methyl acetate, 283.15 K	1.5e-05
in methyl acetate, 288.15 K	4e-05
in methyl acetate, 293.15 K	8e-05
in methyl acetate, 298.15 K	0.000116
in methyl acetate, 303.15 K	0.000153
in methyl acetate, 308.15 K	0.000219
in methyl acetate, 313.15 K	0.000278
in methyl acetate, 318.15 K	0.000331
in methyl acetate, 323.15 K	0.0004
in methyl acetate, 328.15 K	0.000474
in n-butanol, 283.15 K	8.8e-05
in n-butanol, 288.15 K	0.0001
in n-butanol, 293.15 K	0.000122
in n-butanol, 298.15 K	0.000142
in n-butanol, 303.15 K	0.000181
in n-butanol, 308.15 K	0.000219
in n-butanol, 313.15 K	0.000264
in n-butanol, 318.15 K	0.000316
in n-butanol, 323.15 K	0.000362
in n-butanol, 328.15 K	0.00042
in n-butanol, 333.15 K	0.0005
in n-pentanol, 283.15 K	6.3e-05
in n-pentanol, 288.15 K	8.4e-05
in n-pentanol, 293.15 K	0.000114
in n-pentanol, 298.15 K	0.000142
in n-pentanol, 303.15 K	0.00017
in n-pentanol, 308.15 K	0.000215
in n-pentanol, 313.15 K	0.000321
in n-pentanol, 318.15 K	0.000487
in n-pentanol, 323.15 K	0.000628
in n-pentanol, 328.15 K	0.000805
in n-pentanol, 333.15 K	0.00104
in n-propanol, 283.15 K	6.6e-05
in n-propanol, 288.15 K	0.000109
in n-propanol, 293.15 K	0.000126
in n-propanol, 298.15 K	0.000154
in n-propanol, 303.15 K	0.000203
in n-propanol, 308.15 K	0.000253
in n-propanol, 313.15 K	0.000304
in n-propanol, 318.15 K	0.000355
in n-propanol, 323.15 K	0.000409
in n-propanol, 328.15 K	0.000456
in n-propanol, 333.15 K	0.000502
in sec-butanol, 283.15 K	3.8e-05
in sec-butanol, 288.15 K	6.8e-05
in sec-butanol, 293.15 K	9e-05
in sec-butanol, 298.15 K	0.000129
in sec-butanol, 303.15 K	0.000166
in sec-butanol, 308.15 K	0.000205
in sec-butanol, 313.15 K	0.000245
in sec-butanol, 318.15 K	0.000293
in sec-butanol, 323.15 K	0.000321
in sec-butanol, 328.15 K	0.000365
in sec-butanol, 333.15 K	0.000407
in water, 283.15 K	0.0457
in water, 288.15 K	0.0473
in water, 293.15 K	0.0493
in water, 298.15 K	0.0511
in water, 303.15 K	0.053
in water, 308.15 K	0.0554
in water, 313.15 K	0.0571
in water, 318.15 K	0.059
in water, 323.15 K	0.0612
in water, 328.15 K	0.0632
in water, 333.15 K	0.0671
